Reference: patent US7939558B2, “Compounds having activity in increasing ion transport by mutant-CFTR and uses thereof” (The Regents of the University of California, priority 2004, dated 2011)
Read-outs that look alike come from different tables or passages of the source.

Target: ΔF508-CFTR (Homo sapiens, UniProt P13569, DEL508-508)
Assay: Fluorescence (YFP-H148Q/I152L) I− influx assay of ΔF508-CFTR potentiator activity in FRT cells
Format: cell-based
Parameters: expressed in transfected cells
Conditions: 27° C. 24 h, forskolin 20 μM, read-out: Ka
Procedure: Clonal populations of Fischer rat thyroid (FRT) epithelial cells stably co-expressing human ΔF508-CFTR and the high-sensitivity halide-sensing green fluorescent analog YFP-H148Q/I152L (Galietta et al., A.S. (2001) FEBS Lett. 499, 220-224) were generated by liposome transfection and limiting dilution with Zeocin/G418 selection. More than 100 clones were evaluated for high fluorescence and ΔF508-CFTR plasma membrane targeting after growth at 27° C. for 24 hours. For screening, cells were cultured on plastic in Coon's modified F12 medium supplemented with 10% fetal bovine serum, 2 mM L-glutamine, 100 U/ml penicillin, and 100 μg/ml streptomycin, and plated on black 96-well microplates (Corning-Costar 3904) at 30,000 cells/well. For short-circuit measurements cells were cultured on Snapwell permeable supports (Corning-Costar) at 500,000 cells/insert. Human nasal epithelium cells from CF patients were cultured on Snapwell inserts and allowed to differentiate in a hormone-supplemented medium (Galietta et al., Am. J. Physiol., […]). Some measurements were done using stably transfected FRT cells expressing YFP-H148Q and wildtype- or G551D-CFTR (Galietta et al., (2001) J. Biol. Chem. 276, 19723-19728). Patch clamp experiments were done on ΔF508-CFTR-expressing FRT cells plated in 35-mm Petri dishes.
Screening was carried out using a Beckman integrated system containing a 3-meter robotic arm, CO2 incubator containing microplate carousel, plate-washer, liquid handling workstation, bar code reader, delidding station, plate sealer, and two FluoStar fluorescence plate readers (Galaxy, BMG Lab Technologies), each equipped with dual syringe pumps and HQ500/20X ([…]) excitation and HQ535/30M (535±15 nm) emission filters (Chroma). Software was written in VBA (Visual Basic for Applications) to compute baseline-subtracted fluorescence slopes (giving halide influx rates).
For assay of ΔF508-CFTR potentiator activity the incubator (27° C., 90% humidity, 5% CO2/95% air) was loaded with forty-to-sixty 96-well plates containing FRT cells. After an 18-24 hour incubation plates were washed 3 times with PBS (300 μl/wash) leaving 50 μl PBS. 10 μl of PBS containing 120 μM forskolin was added, and after 5 min test compounds (0.6 μl of 0.25 mM DMSO solution) were added to each well to give 2.5 μM final compound concentrations. After 15 min, 96-well plates were transferred to a plate reader for fluorescence assay. Each well was assayed individually for I^− influx by recording fluorescence continuously (200 ms per point) for 2 seconds (baseline) and then for 12 seconds after rapid (<1 s) addition of 160 μL of isosmolar PBS in which 137 mM Cl^− was replaced by I^−. I^− influx rates were computed from initial fluorescence versus time-curve slopes (determined by 3rd order polynomial regression) after normalization for total fluorescence (background subtracted initial fluorescence). All compound plates contained negative control (DMSO vehicle alone) and positive controls (genistein, 5 μM and 50 μM). Assay analysis indicated a Z′-factor of >0.7 (Zhang et al., J. Biomol. Screen 4:67-73 (1999)).
The high-throughput screen was designed to identify compounds that activated ΔF508-CFTR when expressed at the cell plasma membrane. FRT epithelial cells co-expressing ΔF508-CFTR and a high sensitivity yellow fluorescent protein-based halide indicator were incubated at 27° C. for 24 h to permit ΔF508-CFTR plasma membrane targeting (FIG. 1, panel A). After washing, forskolin (20 μM) and test compounds (2.5 μM) were added to individual wells of 96-well plates. The I^− influx assay was carried out ˜15 min later by measurement of the time course of decreasing YFP fluorescence after creation of an inwardly-directed I^− gradient. A high concentration of forskolin was used to identify ΔF508-CFTR potentiators that may interact directly with ΔF508-CFTR rather than alter cAMP concentration. […]

[1] = phenylglycine containing compounds
[2] = sulfonamide containing compounds

ΔF508-CFTR, sequence (P13569 with tags, fused parts or gaps DEL508-508): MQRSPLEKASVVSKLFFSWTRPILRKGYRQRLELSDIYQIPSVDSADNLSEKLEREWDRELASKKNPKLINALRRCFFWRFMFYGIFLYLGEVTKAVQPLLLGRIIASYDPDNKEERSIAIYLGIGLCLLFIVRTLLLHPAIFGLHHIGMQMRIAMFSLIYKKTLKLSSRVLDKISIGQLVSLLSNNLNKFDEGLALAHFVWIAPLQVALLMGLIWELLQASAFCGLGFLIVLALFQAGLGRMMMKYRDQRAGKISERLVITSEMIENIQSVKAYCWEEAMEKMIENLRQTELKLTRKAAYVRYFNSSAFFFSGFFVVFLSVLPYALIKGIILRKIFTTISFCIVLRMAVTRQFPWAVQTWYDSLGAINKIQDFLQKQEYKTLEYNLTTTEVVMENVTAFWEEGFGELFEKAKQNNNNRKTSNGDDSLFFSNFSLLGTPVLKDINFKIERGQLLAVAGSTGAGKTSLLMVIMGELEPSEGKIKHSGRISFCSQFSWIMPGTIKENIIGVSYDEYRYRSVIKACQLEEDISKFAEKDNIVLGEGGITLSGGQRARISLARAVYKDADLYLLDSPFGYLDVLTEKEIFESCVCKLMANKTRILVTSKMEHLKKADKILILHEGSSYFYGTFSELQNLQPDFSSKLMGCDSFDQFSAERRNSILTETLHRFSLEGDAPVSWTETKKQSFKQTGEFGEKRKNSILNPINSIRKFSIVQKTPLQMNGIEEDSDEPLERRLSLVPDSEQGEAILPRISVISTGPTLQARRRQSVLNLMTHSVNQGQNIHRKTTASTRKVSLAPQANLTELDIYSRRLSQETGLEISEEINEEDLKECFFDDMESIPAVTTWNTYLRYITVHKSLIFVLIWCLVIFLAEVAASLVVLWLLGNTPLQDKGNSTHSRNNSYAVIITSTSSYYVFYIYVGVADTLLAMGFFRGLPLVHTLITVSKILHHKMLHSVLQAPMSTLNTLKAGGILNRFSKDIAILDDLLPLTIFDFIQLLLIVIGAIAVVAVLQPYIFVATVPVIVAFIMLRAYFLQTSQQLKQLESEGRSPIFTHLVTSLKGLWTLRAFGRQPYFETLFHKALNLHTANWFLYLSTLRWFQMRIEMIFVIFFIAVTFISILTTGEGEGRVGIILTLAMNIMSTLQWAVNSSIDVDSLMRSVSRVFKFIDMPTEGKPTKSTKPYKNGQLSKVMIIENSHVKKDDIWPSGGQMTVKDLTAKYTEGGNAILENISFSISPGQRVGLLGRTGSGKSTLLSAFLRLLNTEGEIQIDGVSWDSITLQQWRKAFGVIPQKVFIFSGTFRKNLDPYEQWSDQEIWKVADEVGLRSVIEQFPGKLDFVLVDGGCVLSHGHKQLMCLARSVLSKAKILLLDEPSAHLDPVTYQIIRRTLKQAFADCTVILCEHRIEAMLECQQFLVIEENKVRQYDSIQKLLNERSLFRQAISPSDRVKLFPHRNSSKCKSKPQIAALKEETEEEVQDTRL

SMILES | EC50 [1] [nM] | EC50 [2] [nM]
CC(=O)NCC(=O)N(C)C(C(=O)Nc1ccc2c(c1)OCCO2)c1ccccc1 (centres unmarked) [Compound P-2, 2-[(2-Acetylamino-acetyl)-methyl-amino]-N-(2,3-dihydro-benzo[1,4]dioxin-6-yl)-2-phenyl-acetamide] | 300 | –
COc1ccc(C(C(=O)Nc2ccc(C(C)C)cc2)N(C)C(=O)Cc2c[nH]c3ccccc23)cc1 (centres unmarked) [Compound P-3, 2-[(2-1H-Indol-3-yl-acetyl)-methyl-amino]-N-(4-isopropyl-phenyl)-2-(4-methoxy-phenyl)-acetamide] | 340 | –
COc1ccc(NC(=O)C(c2ccccc2)N(C)C(=O)Cc2c[nH]c3ccccc23)cc1 (centres unmarked) [Compound P-5, 2-[(2-1H-Indol-3-yl-acetyl)-methyl-amino]-N-(4-methoxy-phenyl)-2-phenyl-acetamide] | 700 | –
CC(C)c1ccc(NC(=O)C(NC(=O)Cc2c[nH]c3ccccc23)c2ccccc2)cc1 (centres unmarked) [Compound P-6, 2-(2-1H-Indol-3-yl-acetylamino)-N-(4-isopropyl-phenyl)-2-phenyl-acetamide] | 880 | –
Cc1ccc(C(C(=O)Nc2ccc3c(c2)OCO3)N(C)C(=O)Cc2c[nH]c3ccccc23)cc1 (centres unmarked) [Compound P-7, N-Benzo[1,3]dioxol-5-yl-2-[(2-1H-indol-3-yl-acetyl)-methyl-amino]-2-p-tolyl-acetamide] | 1330 | –
COc1ccc(NC(=O)C(c2ccc(OC)cc2)N(C)C(=O)Cc2c[nH]c3ccccc23)cc1 (centres unmarked) [Compound P-8, 2-[(2-1H-Indol-3-yl-acetyl)-methyl-amino]-2,N-bis-(4-methoxy-phenyl)-acetamide] | 2130 | –
Cc1ccc(C(NC(=O)Cc2cc3ccccc3[nH]2)C(=O)Nc2ccc3c(c2)OCCO3)cc1 (centres unmarked) [Compound P-9, N-(2,3-Dihydro-benzo[1,4]dioxin-6-yl)-2-(2-1H-indol-2-yl-acetylamino)-2-p-tolyl-acetamide] | 2330 | –
COc1ccc(C(C(=O)Nc2ccc3c(c2)OCCO3)N(C)C(=O)Cc2c[nH]c3ccccc23)cc1 (centres unmarked) [Compound P-10, N-(2,3-Dihydro-benzo[1,4]dioxin-6-yl)-2-[(2-1H-indol-3-yl-acetyl)-methyl-amino]-2-(4-methoxy-phenyl)-acetamide] | 2710 | –
CCC(C)NC(=O)c1c[nH]c2ccc(S(=O)(=O)N(C)c3cccc(C)c3)cc2c1=O (centres unmarked) [Compound S-25, 6-(Methyl-m-tolyl-sulfamoyl)-4-oxo-1,4-dihydro-quinoline-3-carboxylic acid sec-butylamide] | – | 440
CCc1ccccc1N(C)S(=O)(=O)c1ccc2[nH]cc(C(=O)NC(C)CC)c(=O)c2c1 (centres unmarked) [Compound S-26] | – | 440
CCN(c1ccccc1)S(=O)(=O)c1ccc2[nH]cc(C(=O)NCc3ccco3)c(=O)c2c1 [Compound S-27] | – | 460
CCN(c1cccc(C)c1)S(=O)(=O)c1ccc2[nH]cc(C(=O)NCCCOC)c(=O)c2c1 [Compound S-28] | – | 480
Cc1cccc(N(C)S(=O)(=O)c2ccc3[nH]cc(C(=O)NCCC4=CCCCC4)c(=O)c3c2)c1 [Compound S-29, 6-(Methyl-m-tolyl-sulfamoyl)-4-oxo-1,4-dihydro-quinoline-3-carboxylic acid (2-cyclohex-1-enyl-ethyl)-amide] | – | 490
CCN(c1ccc(F)cc1)S(=O)(=O)c1ccc2[nH]cc(C(=O)NCC3CCCO3)c(=O)c2c1 (centres unmarked) [Compound S-30, 6-[Ethyl-(4-fluoro-phenyl)-sulfamoyl]-4-oxo-1,4-dihydro-quinoline-3-carboxylic acid (tetrahydro-furan-2-ylmethyl)-amide] | – | 540
CCCNC(=O)c1c[nH]c2ccc(S(=O)(=O)N(C)c3cccc(C)c3)cc2c1=O [Compound S-31] | – | 560
O=C(NC1CCCCC1)c1c[nH]c2ccc(S(=O)(=O)N3CCc4ccccc43)cc2c1=O [Compound S-32, 6-(2,3-Dihydro-indole-1-sulfonyl)-4-oxo-1,4-dihydro-quinoline-3-carboxylic acid cyclohexylamide] | – | 570
CCN(c1ccccc1)S(=O)(=O)c1ccc2[nH]cc(C(=O)NCc3ccc(C)cc3)c(=O)c2c1 [Compound S-33] | – | 590
CCOC(=O)C(NC(=O)c1c[nH]c2ccc(S(=O)(=O)N(C)C3CCCCC3)cc2c1=O)C(=O)OCC [Compound S-34] | – | 590

Now from value to compound:

EC50 [1] [nM] | EC50 [2] [nM] | SMILES
– | 20 | CCN(c1ccccc1)S(=O)(=O)c1ccc2[nH]cc(C(=O)NC3CCCCCC3)c(=O)c2c1 [Compound S-2]
– | 30 | CCN(c1ccccc1)S(=O)(=O)c1ccc2[nH]cc(C(=O)NC3CCCCC3)c(=O)c2c1 [Compound S-4]
– | 110 | C=CCN(c1ccccc1)S(=O)(=O)c1ccc2[nH]cc(C(=O)NCCCC)c(=O)c2c1 [Compound S-6]
– | 120 | C=CCN(c1ccccc1)S(=O)(=O)c1ccc2[nH]cc(C(=O)NC3CCCCCC3)c(=O)c2c1 [Compound S-7]
– | 130 | Cc1ccc(C)c(N(C)S(=O)(=O)c2ccc3[nH]cc(C(=O)NCc4ccccn4)c(=O)c3c2)c1 [Compound S-8]
– | 140 | CCN(c1ccccc1)S(=O)(=O)c1ccc2[nH]cc(C(=O)NCCCOC)c(=O)c2c1 [Compound S-9, 6-(Ethyl-phenyl-sulfamoyl)-4-oxo-1,4-dihydro-quinoline-3-carboxylic acid (3-methoxy-propyl)-amide]
– | 160 | C=CCN(c1ccccc1)S(=O)(=O)c1ccc2[nH]cc(C(=O)NCc3ccccn3)c(=O)c2c1 [Compound S-11]
– | 190 | C=CCN(c1ccccc1)S(=O)(=O)c1ccc2[nH]cc(C(=O)NCCCCCC)c(=O)c2c1 [Compound S-12]
– | 200 | CCCCNC(=O)c1c[nH]c2ccc(S(=O)(=O)N(C)c3ccccc3C)cc2c1=O [Compound S-13]
– | 200 | CCOc1ccccc1N(C)S(=O)(=O)c1ccc2[nH]cc(C(=O)NCC3CCCO3)c(=O)c2c1 (centres unmarked) [Compound S-14]
– | 220 | CCCCCNC(=O)c1c[nH]c2ccc(S(=O)(=O)N(C)c3cccc(C)c3)cc2c1=O [Compound S-15]
– | 240 | CCN(c1ccccc1)S(=O)(=O)c1ccc2[nH]cc(C(=O)NCCC3=CCCCC3)c(=O)c2c1 [Compound S-16]
– | 240 | CCN(c1ccccc1)S(=O)(=O)c1ccc2[nH]cc(C(=O)NCC3CCCO3)c(=O)c2c1 (centres unmarked) [Compound S-17]
– | 270 | CCc1ccccc1N(C)S(=O)(=O)c1ccc2[nH]cc(C(=O)NCc3ccccn3)c(=O)c2c1 [Compound S-18]
– | 290 | COCCCNC(=O)c1c[nH]c2ccc(S(=O)(=O)N(C)c3cc(C)ccc3C)cc2c1=O [Compound S-19]
– | 330 | CCCCNC(=O)c1c[nH]c2ccc(S(=O)(=O)N(C)c3c(C)cccc3C)cc2c1=O [Compound S-20, 6-[(2,6-Dimethyl-phenyl)-methyl-sulfamoyl]-4-oxo-1,4-dihydro-quinoline-3-carboxylic acid butylamide]
– | 330 | CCN(c1ccc(F)cc1)S(=O)(=O)c1ccc2[nH]cc(C(=O)NC3CCCC3)c(=O)c2c1 [Compound S-21, 6-[Ethyl-(4-fluoro-phenyl)-sulfamoyl]-4-oxo-1,4-dihydro-quinoline-3-carboxylic acid cyclopentylamide]
– | 360 | CCOC(CNC(=O)c1c[nH]c2ccc(S(=O)(=O)N(C)c3ccc(CC)cc3)cc2c1=O)OCC [Compound S-22]
– | 370 | COc1ccc(Cl)cc1N(C)S(=O)(=O)c1ccc2[nH]cc(C(=O)NCCC3=CCCCC3)c(=O)c2c1 [Compound S-23]
– | 380 | CCN(CC)S(=O)(=O)c1ccc2[nH]cc(C(=O)NCc3ccc4c(c3)OCO4)c(=O)c2c1 [Compound S-24]
